This note sets out measurements from ChEMBL document CHEMBL1201862, “PubChem BioAssay data set” (2004).

Molecules are shown by their SMILES.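 Dose response: 5 concentrations. Exposure: 48 h. Format: 96-well plates. Endpoint: linear interpolation; highest concentration if not reached. GI50 is the concentration that inhibits growth by half.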 The source made the active and inactive calls. Rule as the data show it: active = GI50 up to about 1.1 µM and inactive = higher. Some results are limits rather than exact numbers.

Some test systems named below: HT-29; T47D; HCC 2998; EKVX; A549; UACC-62; M14; HOP-92; A498; SF-539; NCI-H460; SF-268; DU-145; UO-31; MOLT-4; SNB-75; NCI-H522; RPMI-8226.
Assay in all cases: NCI-60 cell line screen, 48 h

Take `COC(=O)CNC(=O)CCSc1nnc(COc2ccc(Cl)cc2)n1-c1ccccc1`: the GI50 is 27.5 µM (inactive) in the test with HT-29; 25.9 µM (inactive) in the test with T47D; 42.9 µM (inactive) in the test on HCC 2998; 59.6 µM (inactive) in the test with EKVX; 68.2 µM (inactive) in the test on A549; 20.2 µM (inactive) in the test with UACC-62. Moreover, the GI50 is 23.4 µM (inactive) in the test on M14; 33.6 µM (inactive) in the test on HOP-92; > 100 µM (inactive) in the test on A498; 91.8 µM (inactive) in the test with SF-539; 31.4 µM (inactive) in the test with NCI-H460; 20.3 µM (inactive) in the test on SF-268. Further, the GI50 in the test with DU-145 is 20.9 µM (inactive); in the test on UO-31, 34.8 µM (inactive); with MOLT-4, 24.7 µM (inactive); in the test with SNB-75, 20.4 µM (inactive); with NCI-H522, 15.4 µM (inactive).
As to `CSC1=N/C(=C\c2ccc(Cl)cc2)C(=O)N1CN1CCOCC1`, the GI50 was 27.5 µM (inactive) with HT-29; 53.5 µM (inactive) in the test on EKVX; > 100 µM (inactive) in the test with A549; 28.9 µM (inactive) in the test on UACC-62; 39 µM (inactive) in the test on M14; 0.308 µM (active) in the test with HOP-92. For the same molecule, the GI50 in the test with A498 was 17.6 µM (inactive); with SF-268, 18.2 µM (inactive); with DU-145, 63.8 µM (inactive); with UO-31, 23 µM (inactive); with RPMI-8226, 19.3 µM (inactive); with MOLT-4, 40 µM (inactive). The GI50 in the test with SNB-75 is 55.2 µM (inactive); in the test with NCI-H522 it was 30.7 µM (inactive).
`ON=C(CC(O)(C(F)(F)Cl)C(F)(F)Cl)CC(O)(C(F)(F)Cl)C(F)(F)Cl`: the GI50 in the test with HT-29 is 9.14 µM (inactive); in the test with T47D, 3.37 µM (inactive); in the test with HCC 2998, 4.5 µM (inactive); in the test with EKVX it was 5.04 µM (inactive); in the test with A549 it was 5.46 µM (inactive); in the test on UACC-62, 3.46 µM (inactive). Also, the GI50 was 2.87 µM (inactive) in the test with A498; 2.07 µM (inactive) in the test on SF-539; 4.1 µM (inactive) in the test with NCI-H460; 3.55 µM (inactive) in the test with SF-268; 3.28 µM (inactive) with DU-145; 3.33 µM (inactive) with UO-31. Also, the GI50 in the test with RPMI-8226 is 2.7 µM (inactive); in the test on MOLT-4 it was 4.83 µM (inactive); in the test on SNB-75, 6.61 µM (inactive); in the test with NCI-H522, 3.21 µM (inactive).
As for `CC(C)(/C=N/O)/[N+]([O-])=C/c1ccccc1`, the GI50 in the test with HT-29, in the test with T47D, in the test on HCC 2998, in the test on EKVX, with A549 and with UACC-62 was > 100 µM (inactive) each time. For the same molecule, the GI50 in the test on M14, in the test with HOP-92, with SF-539, with NCI-H460, in the test with SF-268 and in the test on DU-145 was > 100 µM (inactive) throughout. Also, the GI50 with UO-31, in the test on RPMI-8226, in the test on MOLT-4 and in the test with SNB-75 was > 100 µM (inactive) in each case.
Take `CCN(CC)C(=O)CNC(=O)OC(C)(C)C`: the GI50 with HT-29, in the test on HCC 2998, with EKVX, in the test on A549, in the test with UACC-62 and with M14 was > 100 µM (inactive) in each case. Moreover, the GI50 in the test with HOP-92, in the test on A498, in the test on SF-539, in the test with NCI-H460, in the test on SF-268 and with UO-31 was > 100 µM (inactive) in each case. Further, the GI50 in the test on RPMI-8226, in the test on MOLT-4, in the test on SNB-75 and in the test with NCI-H522 was > 100 µM (inactive) throughout.
`CC1(C)C=C(/C=N/Nc2ccc(Br)cc2)C(C#N)=C(O)C1(C#N)C#N`: the GI50 in the test with HT-29 is 40.8 µM (inactive); in the test on T47D it was 40.9 µM (inactive); in the test with HCC 2998, 24.5 µM (inactive); in the test on EKVX, 54.3 µM (inactive); with A549 it was 39.2 µM (inactive); in the test with UACC-62 it was 38.7 µM (inactive). Further, the GI50 is 26.6 µM (inactive) in the test with M14; 22.4 µM (inactive) in the test with HOP-92; 55.2 µM (inactive) in the test on SF-539; 33.1 µM (inactive) in the test with NCI-H460; 40.9 µM (inactive) in the test on SF-268; 66.7 µM (inactive) with DU-145. Also, the GI50 was 22.8 µM (inactive) in the test with UO-31; 38.5 µM (inactive) with RPMI-8226; 29.2 µM (inactive) in the test with MOLT-4; 66.4 µM (inactive) in the test with SNB-75; 75.9 µM (inactive) with NCI-H522.
For the molecule `Cc1cnc2c(C)ccc([N+](=O)[O-])c2c1NCCCN(C)C`, the GI50 in the test with HT-29, in the test on HCC 2998, in the test with EKVX, in the test on A549, in the test on M14 and in the test on SF-539 was > 100 µM (inactive) in each case. Moreover, the GI50 with NCI-H460, in the test with SF-268, in the test with UO-31, in the test on RPMI-8226, in the test on MOLT-4 and in the test with NCI-H522 was > 100 µM (inactive) throughout.
As for `COc1cccc(C(=O)Oc2ccc(OS(=O)(=O)c3ccc(C)cc3)cc2)c1C#N`, the GI50 in the test with HT-29 was 78.5 µM (inactive); in the test on T47D it was 20.1 µM (inactive); in the test on EKVX, 59.8 µM (inactive); in the test on A549, 23.6 µM (inactive); in the test with UACC-62, 87.3 µM (inactive); with M14 it was 47.9 µM (inactive). The GI50 with HOP-92 was 41.6 µM (inactive); in the test on SF-539, > 100 µM (inactive); with NCI-H460, 49.5 µM (inactive); with SF-268 it was > 100 µM (inactive); with DU-145, 93.1 µM (inactive); in the test on UO-31, 28.3 µM (inactive). The GI50 in the test on RPMI-8226 is 36.8 µM (inactive); with MOLT-4, 35.7 µM (inactive); with SNB-75, > 100 µM (inactive); in the test on NCI-H522 it was 86.7 µM (inactive).
In the case of `CC[C@H](CC[C@@H](C)[C@H]1CC[C@H]2[C@@H]3CC=C4C[C@@H](O)CC[C@]4(C)[C@H]3CC[C@]12C)C(C)C` [BETA-SITOSTEROL], the GI50 in the test on HT-29, in the test on HCC 2998, with EKVX, in the test with A549, in the test on M14 and in the test on HOP-92 was > 100 µM (inactive) in each case. In addition, the GI50 with SF-539, in the test on NCI-H460, in the test on SF-268, in the test with DU-145, in the test on UO-31 and in the test on RPMI-8226 was > 100 µM (inactive) each time. Besides, the GI50 in the test on MOLT-4, with SNB-75 and in the test with NCI-H522 was > 100 µM (inactive) throughout.
